System: Plasmodium berghei
Assay: Luciferase/luciferin-expressing antifolate-resistant parasites were used to infect a culture of HepG2 cells that were pre-incubated with compounds. Infected hepatocytes emit light due to the luciferase reaction. Assay results are presented as the percent inhibition of light emission compared to control. […]
Type: functional
Conditions: sporozoite; for IC90: read-out: LUCIFERASE INFECTION ASSAY - IC90
[1] = read-out: LUCIFERASE INFECTION ASSAY - IC50

SMILES	IC90 [µM]	IC50 [1] [µM]	also measured
Cc1nn(-c2ccccn2)c2nc(-c3ccc4c(c3)OCO4)ccc12	> 10		IC50 (HEPG2TOX_HILL_SLOPE 2.11, HEPG2TOX_R_SQUARED 0.932, read-out: LUCIFERASE INFECTION ASSAY - IC50): > 10 µM
CCc1ccc(Cl)c(CC)c1NC(=O)CCc1c(C)c2ccc(C)cc2oc1=O	> 10		IC50 (HEPG2TOX_HILL_SLOPE 2.1, HEPG2TOX_R_SQUARED 0.669, read-out: LUCIFERASE INFECTION ASSAY - IC50): > 10 µM
CCN(CC)c1ccc(NC(=O)CCc2ccccc2)cc1C	6.81		IC50 (HEPG2TOX_HILL_SLOPE 3.47, HEPG2TOX_R_SQUARED 0.947, PBLUC_HILL_SLOPE 2.46, PBLUC_R_SQUARED 0.836, read-out: LUCIFERASE INFECTION ASSAY - IC50): 2.79 µM
CC1N(C)c2ccc(/C=C/c3cc[n+](C)cc3)cc2C1(C)C (centres undefined)	4.04	3.32	
N#Cc1c(OCC(F)(F)F)ccc(Sc2ccc(C(F)(F)F)cn2)c1OCC(F)(F)F	> 6.93	5.5	
CC(C)CN1/C(=C\c2cccc3[nH]ccc23)C(=O)c2ccccc2S1(=O)=O	> 8.67		IC50 (FFLUC_HILL_SLOPE 2.19, FFLUC_R_SQUARED 0.818, HEPG2TOX_HILL_SLOPE 2.77, HEPG2TOX_R_SQUARED 0.93, read-out: LUCIFERASE INFECTION ASSAY - IC50): > 8.67 µM
C=CCn1c(C)cc(C(=O)CSc2nc3ccccc3[nH]2)c1C	0.467		IC50 (PBLUC_HILL_SLOPE 12.6, PBLUC_R_SQUARED 0.563, read-out: LUCIFERASE INFECTION ASSAY - IC50): 0.393 µM
Cn1c(=O)c2cc(NC(=O)CC(C)(C)C)ccc2n1Cc1ccccc1	> 9.39	> 9.39	
CC(C)N1CCC(C)(C(=O)Nc2ccc3c(c2)C(=O)N(C)C3=O)C1 (centres undefined)	> 10	> 10	
CCOC(=O)c1c(NC(=O)Cn2ncc(Cl)c(Cl)c2=O)sc2c1CCC(C)C2 (centres undefined)	> 10	> 10	
Cn1cc(-c2cn3c(-c4ccc5c(ccn5C)c4)cnc3cn2)cn1	1.47		IC50 (HEPG2TOX_HILL_SLOPE 1.22, HEPG2TOX_R_SQUARED 0.939, PBLUC_HILL_SLOPE 1.34, PBLUC_R_SQUARED 0.885, read-out: LUCIFERASE INFECTION ASSAY - IC50): 0.287 µM
Cn1nc(-c2ccc(S(=O)(=O)NCc3cccnc3)s2)cc1C(F)(F)F	> 8.2	> 8.2	
Cc1onc(-c2c(Cl)cccc2Cl)c1C(=O)Nc1ccccc1C(=O)NCc1c(F)cccc1Cl	> 6.19	> 6.19	
CC(C)Nc1cc(-c2ccccc2)nc2c(-c3ccccc3)cnn12	> 10		IC50 (PBLUC_HILL_SLOPE 1.35, PBLUC_R_SQUARED 0.594, read-out: LUCIFERASE INFECTION ASSAY - IC50): 2.01 µM
Cc1cc(C=C2Sc3ccc4ccccc4c3N2C)cc(C)[n+]1Cc1cccnc1	> 10	> 10	
c1ccc(Oc2cccc(-c3ccc4nnc(-c5ccc6c(c5)OCO6)n4c3)c2)cc1	> 10		IC50 (PBLUC_HILL_SLOPE 1.92, PBLUC_R_SQUARED 0.18, read-out: LUCIFERASE INFECTION ASSAY - IC50): 8.29 µM
O=C(Nc1ccccc1)Nc1nc2ccc([N+](=O)[O-])cc2s1	7.31		IC50 (HEPG2TOX_HILL_SLOPE 6.06, HEPG2TOX_R_SQUARED 0.204, PBLUC_HILL_SLOPE 4.24, PBLUC_R_SQUARED 0.473, read-out: LUCIFERASE INFECTION ASSAY - IC50): 4.36 µM
CCOC(=O)c1c(NC(=O)Cn2c(=O)c(C#N)c3n(c2=O)CCC3)sc(C)c1CC	> 10		IC50 (PBLUC_HILL_SLOPE 0.645, PBLUC_R_SQUARED 0.0864, read-out: LUCIFERASE INFECTION ASSAY - IC50): > 10 µM
CCOc1ccccc1NC(=O)CN(C)S(=O)(=O)c1ccc(OC)c(C)c1	> 8.41	> 8.41	
CCOC(=O)N1CCN(C2c3ccccc3-c3ccccc32)CC1	> 10.2	8.79	
Cc1cc(OCCN(C)C)cc2c1C1CCC3(C)C(=O)CCC3C1C=C2 (centres undefined)	> 9.34		IC50 (FFLUC_HILL_SLOPE 6.52, FFLUC_R_SQUARED 0.182, PBLUC_HILL_SLOPE 2.32, PBLUC_R_SQUARED 0.511, read-out: LUCIFERASE INFECTION ASSAY - IC50): 5.67 µM
O=S(=O)(Nc1cc(C(F)(F)F)cc(C(F)(F)F)c1)c1ccccc1Oc1ccc(Cl)cc1Cl	> 6.22		IC50 (FFLUC_HILL_SLOPE 40.5, FFLUC_R_SQUARED 0.634, read-out: LUCIFERASE INFECTION ASSAY - IC50): > 6.22 µM
COc1ccc(Cl)cc1NC(=O)C(C)NCC(c1ccccc1)c1c[nH]c2ccccc12 (centres undefined)	> 10	6.47	
COc1ccc(Cc2nn3c(C(=S)NCCCN4CCOCC4)c(-c4ccc(Cl)cc4)c4c3n2CCCC4)cc1	> 10		IC50 (PBLUC_HILL_SLOPE 10, PBLUC_R_SQUARED 0.392, read-out: LUCIFERASE INFECTION ASSAY - IC50): 8.06 µM

SMILES	IC90 [µM]	IC50 [1] [µM]	also measured
COc1cc2c(cc1OC)C(c1ccccc1)N(C(=O)/C=C/c1ccsc1)CC2 (centres undefined)	> 10	> 10	
Cc1ccccc1/C=N/NC(N)=S	> 17.1		IC50 (HEPG2TOX_HILL_SLOPE 1.52, HEPG2TOX_R_SQUARED 0.966, read-out: LUCIFERASE INFECTION ASSAY - IC50): > 17.1 µM
CC(C)c1ccc(/C=C2\CCc3c2nc2ccccc2c3C(=O)O)cc1	0.0263		IC50 (PBLUC_HILL_SLOPE 81.7, PBLUC_R_SQUARED 0.0337, read-out: LUCIFERASE INFECTION ASSAY - IC50): 0.0256 µM
COc1ccccc1C1CCN(c2ccc([N+](=O)[O-])c(C(F)(F)F)c2)CC1	> 8.68	> 8.68	
CC(C)c1ccc(OCC(=O)NC2CCCCCC2)cc1	> 11.4	> 11.4	
Cc1nc(SCC(=O)N2CCC(c3nc4ccccc4o3)CC2)c2c(C)c(C)sc2n1	> 10	> 10	
Cc1cc(C(=O)COC(=O)c2[nH]nc3ccccc23)c(C)n1CC1CCCO1 (centres undefined)	0.491	0.417	
CCOC(=O)c1c(N)sc(Cc2sc(N)c(C(=O)OCC)c2-c2ccccc2)c1-c1ccccc1	5.92		IC50 (FFLUC_HILL_SLOPE 10.1, FFLUC_R_SQUARED 0.631, HEPG2TOX_HILL_SLOPE 3.62, HEPG2TOX_R_SQUARED 0.944, PBLUC_HILL_SLOPE 88.7, PBLUC_R_SQUARED 0.482, read-out: LUCIFERASE INFECTION ASSAY - IC50): 5.77 µM
Cc1sc(NC(=O)CC(C)NC(=O)c2ccccc2)nc1-c1ccc(F)c(F)c1 (centres undefined)	> 10	> 10	
COc1ccc(C(N)c2csc(NC(=O)c3cc(C(C)(C)C)nn3Cc3ccccc3)n2)cc1 (centres undefined)	4.86		IC50 (HEPG2TOX_HILL_SLOPE 0.0688, HEPG2TOX_R_SQUARED 0.351, PBLUC_HILL_SLOPE 6.29, PBLUC_R_SQUARED 0.765, read-out: LUCIFERASE INFECTION ASSAY - IC50): 3.43 µM
CCOc1cc(/C=C/c2nc3cc(Cl)ccc3o2)ccc1OCC(=O)N(C(C)C)C(C)C	> 10		IC50 (PBLUC_HILL_SLOPE 2.25, PBLUC_R_SQUARED 0.0279, read-out: LUCIFERASE INFECTION ASSAY - IC50): > 10 µM
N#Cc1ccccc1Sc1ccccc1C(=O)OCc1cc(=O)oc2cc(Br)ccc12	> 10		IC50 (HEPG2TOX_HILL_SLOPE 1.78, HEPG2TOX_R_SQUARED 0.958, PBLUC_HILL_SLOPE 3.89, PBLUC_R_SQUARED 0.0824, read-out: LUCIFERASE INFECTION ASSAY - IC50): 9.13 µM
CCOc1ccc(C(C)=O)cc1COC(=O)c1cc(-c2cccc3ccccc23)nc2ccccc12	> 10		IC50 (FFLUC_HILL_SLOPE 1.76, FFLUC_R_SQUARED 0.222, read-out: LUCIFERASE INFECTION ASSAY - IC50): > 10 µM
O=C1CC(c2c(F)cccc2Cl)CC2=Nc3ccccc3NC(c3ccc(Cl)cc3)C12 (centres undefined)	> 7.28		IC50 (HEPG2TOX_HILL_SLOPE 0.118, HEPG2TOX_R_SQUARED 0.0386, read-out: LUCIFERASE INFECTION ASSAY - IC50): > 7.28 µM
C=c1c(Nc2cccc(C(F)(F)F)c2)cc(Nc2cccc(C(F)(F)F)c2)c(O)c1=C	> 10		IC50 (PBLUC_HILL_SLOPE 2.41, PBLUC_R_SQUARED 0.317, read-out: LUCIFERASE INFECTION ASSAY - IC50): 7.29 µM
COc1ccc(-c2nc(CN(c3ccccc3)S(=O)(=O)c3ccccc3)co2)cc1	> 10		IC50 (PBLUC_HILL_SLOPE 12.4, PBLUC_R_SQUARED 0.25, read-out: LUCIFERASE INFECTION ASSAY - IC50): > 10 µM
CCc1c(C)sc2nc(SCC3COc4ccccc4O3)n(-c3ccc(C)c(C)c3)c(=O)c12 (centres undefined)	> 10	> 10	
Cc1nn2c(nc(NCCCc3n[nH]c(N)c3C#N)c3ccccc32)c1Cl	> 10	> 10	
S=C(NCc1ccccc1)N/N=C1/CCCCC1C1CCCCC1 (centres undefined)	> 10	> 10	
O=C(CSc1cccc[n+]1[O-])N1N=C2/C(=C/c3ccccc3)CCCC2C1c1ccccc1 (centres undefined)	6.17		IC50 (PBLUC_HILL_SLOPE 13.0, 1.48, PBLUC_R_SQUARED 0.151, 0.616, read-out: LUCIFERASE INFECTION ASSAY - IC50): 2.66 µM
CC(C)Oc1cccc(-c2cn3c(-c4ccc(C(=O)NC5CC5)cc4)cnc3cn2)c1	7.18		IC50 (PBLUC_HILL_SLOPE 5.31, PBLUC_R_SQUARED 0.43, read-out: LUCIFERASE INFECTION ASSAY - IC50): 4.75 µM
CSc1sc(-c2n[nH]cc2Br)c2c1C(=O)CC(C)(C)C2	> 8.89		IC50 (FFLUC_HILL_SLOPE 0.501, FFLUC_R_SQUARED 0.129, read-out: LUCIFERASE INFECTION ASSAY - IC50): > 8.89 µM
CCn1c2ccccc2c2cc(CNCCNC(=O)c3nonc3N)ccc21	> 8.72	> 8.72	

From ChEMBL document CHEMBL4483862, “Open-source discovery of chemical leads for next-generation chemoprotective antimalarials” (2018)
